Data on three compounds can be found in ChEMBL document CHEMBL2074397, “Molecular cloning and functional expression of a multispecific organic anion transporter from human kidney” (Am J Physiol, 1999).

Bounds are passed on as bounds.

Data set [1] has as its target T1, Solute carrier family 22 member 6 (SLC22A6) (Homo sapiens, UniProt Q4U2R8).
T1 sequence (Q4U2R8 whole entry): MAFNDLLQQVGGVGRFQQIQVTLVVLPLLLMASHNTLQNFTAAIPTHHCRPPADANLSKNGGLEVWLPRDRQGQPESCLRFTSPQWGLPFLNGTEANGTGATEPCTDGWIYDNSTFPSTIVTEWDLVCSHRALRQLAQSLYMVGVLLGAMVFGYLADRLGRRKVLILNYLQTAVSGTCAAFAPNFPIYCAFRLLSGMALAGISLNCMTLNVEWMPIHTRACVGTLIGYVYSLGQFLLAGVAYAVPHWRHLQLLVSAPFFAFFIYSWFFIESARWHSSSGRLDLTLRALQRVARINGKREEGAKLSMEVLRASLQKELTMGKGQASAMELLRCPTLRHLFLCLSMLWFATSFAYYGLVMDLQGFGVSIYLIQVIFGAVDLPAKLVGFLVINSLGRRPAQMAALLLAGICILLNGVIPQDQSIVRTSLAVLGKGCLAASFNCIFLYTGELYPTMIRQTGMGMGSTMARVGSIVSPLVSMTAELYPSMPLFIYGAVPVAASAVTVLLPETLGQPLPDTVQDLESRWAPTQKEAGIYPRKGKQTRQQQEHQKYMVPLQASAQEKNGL
Description: TP_TRANSPORTER: inhibition of PAH uptake (PAH: 2 uM, Furosemide: 2000 uM) in Xenopus laevis oocytes. The note with it: Xenopus laevis oocytes expressing SLC22A6, probe PAH, read-out: Activity. Further details: scale not given: the % may be the effect or the level left. Type of data set: functional, cell-based, Oocyte.

For data set [2], the target named is T2, Solute carrier family 22 member 6 (Homo sapiens, UniProt Q4U2R8).
T2 sequence (Q4U2R8 whole entry): T1 sequence (Q4U2R8 whole entry)
Description: TP_TRANSPORTER: inhibition of PAH uptake (PAH: 2 uM, Indomethacin: 2000 uM) in Xenopus laevis oocytes. Type of data set: functional, cell-based. Set-up: scale not given: the % may be the effect or the level left. The note with it: oocyte.

Data set [3] has as its target T2, Solute carrier family 22 member 6. Description: TP_TRANSPORTER: inhibition of PAH uptake (PAH: 2 uM, Urate: 2000 uM) in Xenopus laevis oocytes. The data set is classed as functional, cell-based. The note with it: oocyte.

On to `NS(=O)(=O)c1cc(C(=O)O)c(NCc2ccco2)cc1Cl` [FUROSEMIDE], for which the activity at 2000 µM in data set [1] was < 0%.
With `COc1ccc2c(c1)c(CC(=O)O)c(C)n2C(=O)c1ccc(Cl)cc1` [INDOMETHACIN], in data set [2], the Activity is recorded as < 0%.
With `O=c1[nH]c(=O)c2[nH]c(=O)[nH]c2[nH]1` [URIC ACID], in data set [3], the Activity result is “inhibitor [(at a rough estimate) 5 % of control]”.
